Measured values reported in US9963453B2, “Substituted pyrazino[1,2-a]indoles as sigma receptor activity modulators” (LABORATORIOS DEL DR. ESTEVE S.A., priority 2013, dated 2018).

These molecules were tested against human sigma 1 receptor (Homo sapiens (Human), UniProt Q99720) (assay: Human Sigma 1 Receptor Radioligand Assay). Conditions: transfected HEK-293 membranes, 5 nM [3H](+)-pentazocine as radioligand, 37° C., 120 minutes.
Chain of human sigma 1 receptor (Q99720 whole entry): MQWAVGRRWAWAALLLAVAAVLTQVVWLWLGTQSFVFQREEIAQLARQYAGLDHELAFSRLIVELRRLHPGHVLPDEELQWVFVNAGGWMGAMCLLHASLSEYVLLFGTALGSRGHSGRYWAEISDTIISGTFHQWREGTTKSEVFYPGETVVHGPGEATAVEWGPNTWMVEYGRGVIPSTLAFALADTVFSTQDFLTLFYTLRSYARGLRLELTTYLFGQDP
Type: binding
Method: Human Sigma 1 Receptor Radioligand Assay
To investigate binding properties of sigma 1 receptor ligands to human sigma 1 receptor, transfected HEK-293 membranes and [^3H](+)-pentazocine (Perkin Elmer, NET-1056), as the radioligand, were used. The assay was carried out with 7 μg of membrane suspension, 5 nM of [^3H](+)-pentazocine in either absence or presence of either buffer or 10 μM Haloperidol for total and non-specific binding, respectively. Binding buffer contained Tris-HCl 50 mM at pH 8. Plates were incubated at 37° C. for 120 minutes. After the incubation period, the reaction mix was then transferred to MultiScreen HTS, FC plates (Millipore), filtered and plates were washed 3 times with ice-cold 10 mM TrisHCL (pH7.4). Filters were dried and counted at approximately 40% efficiency in a MicroBeta scintillation counter (Perkin-Elmer) using EcoScint liquid scintillation cocktail.
`C[C@@H](CC(=O)N1CCn2c(cc3ccccc32)C1)N1CCN(C)CC1` [Example 49, (S)-1-(3,4-dihydropyrazino[1,2-a]indol-2(1H)-yl)-3-(4-methylpiperazin-1-yl)butan-1-one] showed a Ki of 91.7 nM. In the case of `C[C@H](CC(=O)N1CCn2c(cc3ccccc32)C1)N1CCN(C)CC1` [Example 50, (R)-1-(3,4-dihydropyrazino[1,2-a]indol-2(1H)-yl)-3-(4-methylpiperazin-1-yl)butan-1-one], the Ki is reported as 251 nM. `C[C@H](C(=O)N1CCN2c3ccccc3C[C@H]2C1)N1CCN(C2CCCCC2)CC1` [Example 51, (R)-2-(4-cyclohexylpiperazin-1-yl)-1-((S)-3,4,10,10a-tetrahydropyrazino[1,2-a]indol-2(1H)-yl)propan-1-one] was tested, and the Ki was 59.9 nM. For `C[C@@H](C(=O)N1CCN2c3ccccc3C[C@@H]2C1)N1CCN(C2CCCCC2)CC1` [Example 52, (S)-2-(4-cyclohexylpiperazin-1-yl)-1-((R)-3,4,10,10a-tetrahydropyrazino[1,2-a]indol-2(1H)-yl)propan-1-one], the Ki was 142 nM. With `C[C@@H](C(=O)N1CCN2c3ccccc3C[C@H]2C1)N1CCN(C2CCCCC2)CC1` [Example 53, (S)-2-(4-cyclohexylpiperazin-1-yl)-1-((S)-3,4,10,10a-tetrahydropyrazino[1,2-a]indol-2(1H)-yl)propan-1-one] the Ki was 94.7 nM. Work on `C[C@H](C(=O)N1CCN2c3ccccc3C[C@@H]2C1)N1CCN(C2CCCCC2)CC1` [Example 54, (R)-2-(4-cyclohexylpiperazin-1-yl)-1-((R)-3,4,10,10a-tetrahydropyrazino[1,2-a]indol-2(1H)-yl)propan-1-one] yielded a Ki of 71.6 nM.
